In patent publication US4387238A, “Epoxysuccinamic acid compounds” (Taisho Pharmaceutical Co., Ltd., priority 1978, dated 1983) one finds ID50 and inhibition in vivo data, which are given here for 10 compounds.

Each structure is given as a SMILES string.

For one test, the target named is T1, papain (Carica papaya, UniProt P00784).
T1 construct: purchased Sigma Chem. Co
T1 sequence (P00784 134-345): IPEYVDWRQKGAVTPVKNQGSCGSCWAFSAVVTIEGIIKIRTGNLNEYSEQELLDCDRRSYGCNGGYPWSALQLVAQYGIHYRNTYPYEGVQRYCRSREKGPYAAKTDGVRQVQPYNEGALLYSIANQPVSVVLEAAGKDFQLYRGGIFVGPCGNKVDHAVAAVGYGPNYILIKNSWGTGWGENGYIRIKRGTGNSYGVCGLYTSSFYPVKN
Nature of the test: Papain inhibitory activity (milk casein proteolysis). The test is classed as biochemical. Details: unit not given beside the values. Particulars: amount of inhibitor for 50% inhibition; pH 6.8, 40° C., casein substrate.
As to `O=C(NCc1ccccc1)[C@H]1O[C@@H]1C(=O)Oc1ccccc1` (relative stereo) [Compound No. 48, Phenyl N-benzyl-2,3-epoxysuccinamate], the ID50 is 3.83 γ.

Regarding `O=C(Nc1ccccc1)[C@H]1O[C@@H]1C(=O)OC1CCCCC1` (relative stereo) [Compound No. 45, Cyclohexyl N-phenyl-2,3-epoxysuccinamate], the ID50 is 5.89 γ.

On to `CCOC(=O)[C@@H]1O[C@H]1C(=O)N1CCC(C)CC1` (relative stereo) [Compound No. 76, ethyl N-3'-methylpentamethylene-2,3-epoxysuccinamate], for which the ID50 was 79.53 γ.

Take `O=C(NC1CCCCC1)[C@@H]1O[C@H]1C(=O)OC1CCCC1` (relative stereo) [Compound No. 25, cyclopentyl N-cyclohexyl-2,3-epoxysuccinamate]: the ID50 was 3.68 γ.

Turning to `CCOC(=O)[C@@H]1O[C@H]1C(=O)Nc1ccccc1` (relative stereo) [Compound No. 1, ethyl N-phenyl-2,3-epoxysuccinamate], the ID50 was 24.04 γ.

Regarding `CCOC(=O)[C@@H]1O[C@H]1C(=O)N(C)C1CCCCC1` (relative stereo) [Compound No. 31, ethyl N-methyl-N-cyclohexyl-2,3-epoxysuccinamate], the ID50 is listed as 53.19 γ.

On to `O=C(O)[C@@H]1O[C@H]1C(=O)NCC1CCCCC1` (relative stereo) [Compound No. 98, potassium N-cyclohexanemethyl-2,3-epoxysuccinamate], for which the ID50 is reported as 0.205 γ.

On to `CC(C)COC(=O)[C@H]1O[C@@H]1C(=O)Nc1ccccc1` (relative stereo) [Compound No. 40, Isobutyl N-phenyl-2,3-epoxysuccinamate], for which the ID50 was 13.20 γ.

In the case of `CCNC(=O)[C@H]1O[C@@H]1C(=O)OC1CCCCC1` (relative stereo) [Compound No. 66, Cyclohexyl N-ethyl-2,3-epoxysuccinamate], the ID50 is 11.05 γ.

Take `CCOC(=O)[C@@H]1O[C@H]1C(=O)Nc1ccc([N+](=O)[O-])cc1` (relative stereo) [Compound No. 5, ethyl N-4'-nitrophenyl-2,3-epoxysuccinamate]: the ID50 is listed as 22.32 γ.

The next test deals with adjuvant-induced polyarthritis. Nature of the test: Effect on the development of adjuvant-induced polyarthritis in rat (hind paw volume). The class given is in vivo, Sprague Dawley rat. Particulars: 408 h, 30 mg/kg of body weight, daily oral, day 17, mean inhibition for increase of hind paw volume, 8 rats/group, read-out: Inhibition(%) 17 days. As to the method:
The compounds of the present invention show excellent anti-inflammatory activity as measured by their ability to inhibit adjuvant induced polyarthritis as compared with the known epoxysuccinates. That is, they show potent and continuous effectiveness on oral administration of smaller components than the known epoxysuccinic acid compounds. Effect of the compounds of the present invention on the development of adjuvant-induced polyarthritis in rat was assayed as follows: Adjuvant arthritis is produced by a single intracutaneous injection of 0.1 ml of the adjuvant mixture containing heat-killed mycobacteria of the human Aoyama B strain suspended in liquid paraffin in 0.6% in the middle part of the distal tail of Sprague Dawley rat (female, 8 weeks old). The compounds suspended in 0.5% carboxymethylcellulose solution protect the animal against the development of lession of adjuvant arthritis in daily oral administration beginning on the day of adjuvant injection and continuing for 24 days thereafter. The activity is measured as the mean inhibition percent for the increase of the hind paw volume of the 8 rats/group on the days 17 and 23 on which the legs become inflamed and reach maximum volumes. The compound Nos. in Table 1 are as defined in Examples as described hereinafter.
For `O=C(NCc1ccccc1)[C@H]1O[C@@H]1C(=O)Oc1ccccc1` (relative stereo) [Compound No. 48, Phenyl N-benzyl-2,3-epoxysuccinamate], the inhibition in vivo at 30 mg/kg turned out to be 45%.

Turning to `O=C(Nc1ccccc1)[C@H]1O[C@@H]1C(=O)OC1CCCCC1` (relative stereo) [Compound No. 45, Cyclohexyl N-phenyl-2,3-epoxysuccinamate], the inhibition in vivo at 30 mg/kg was 65%.

For the compound `CCOC(=O)[C@@H]1O[C@H]1C(=O)N1CCC(C)CC1` (relative stereo) [Compound No. 76, ethyl N-3'-methylpentamethylene-2,3-epoxysuccinamate], the inhibition in vivo at 30 mg/kg is 48%.

With `O=C(NC1CCCCC1)[C@@H]1O[C@H]1C(=O)OC1CCCC1` (relative stereo) [Compound No. 25, cyclopentyl N-cyclohexyl-2,3-epoxysuccinamate], the inhibition in vivo at 30 mg/kg turned out to be 76%.

`CCOC(=O)[C@@H]1O[C@H]1C(=O)Nc1ccccc1` (relative stereo) [Compound No. 1, ethyl N-phenyl-2,3-epoxysuccinamate]: the inhibition in vivo at 30 mg/kg is 70%.

As to `CCOC(=O)[C@@H]1O[C@H]1C(=O)N(C)C1CCCCC1` (relative stereo) [Compound No. 31, ethyl N-methyl-N-cyclohexyl-2,3-epoxysuccinamate], the inhibition in vivo at 30 mg/kg was found to be 45%.

Take `O=C(O)[C@@H]1O[C@H]1C(=O)NCC1CCCCC1` (relative stereo) [Compound No. 98, potassium N-cyclohexanemethyl-2,3-epoxysuccinamate]: the inhibition in vivo at 30 mg/kg was determined as 55%.

For the compound `CC(C)COC(=O)[C@H]1O[C@@H]1C(=O)Nc1ccccc1` (relative stereo) [Compound No. 40, Isobutyl N-phenyl-2,3-epoxysuccinamate], the inhibition in vivo at 30 mg/kg came out at 40%.

Take `CCNC(=O)[C@H]1O[C@@H]1C(=O)OC1CCCCC1` (relative stereo) [Compound No. 66, Cyclohexyl N-ethyl-2,3-epoxysuccinamate]: the inhibition in vivo at 30 mg/kg was 75%.

`CCOC(=O)[C@@H]1O[C@H]1C(=O)Nc1ccc([N+](=O)[O-])cc1` (relative stereo) [Compound No. 5, ethyl N-4'-nitrophenyl-2,3-epoxysuccinamate]: the inhibition in vivo at 30 mg/kg is 65%.

The same test, now with this note: 552 h, 30 mg/kg of body weight, daily oral, day 23, mean inhibition for increase of hind paw volume, 8 rats/group, read-out: Inhibition(%) 23 days.
As to `O=C(NCc1ccccc1)[C@H]1O[C@@H]1C(=O)Oc1ccccc1` (relative stereo) [Compound No. 48, Phenyl N-benzyl-2,3-epoxysuccinamate], the inhibition in vivo at 30 mg/kg came to 40%.

For the compound `O=C(Nc1ccccc1)[C@H]1O[C@@H]1C(=O)OC1CCCCC1` (relative stereo) [Compound No. 45, Cyclohexyl N-phenyl-2,3-epoxysuccinamate], the inhibition in vivo at 30 mg/kg is 49%.

`CCOC(=O)[C@@H]1O[C@H]1C(=O)N1CCC(C)CC1` (relative stereo) [Compound No. 76, ethyl N-3'-methylpentamethylene-2,3-epoxysuccinamate]: the inhibition in vivo at 30 mg/kg stood at 42%.

Consider `O=C(NC1CCCCC1)[C@@H]1O[C@H]1C(=O)OC1CCCC1` (relative stereo) [Compound No. 25, cyclopentyl N-cyclohexyl-2,3-epoxysuccinamate], for which the inhibition in vivo at 30 mg/kg was 58%.

On to `CCOC(=O)[C@@H]1O[C@H]1C(=O)Nc1ccccc1` (relative stereo) [Compound No. 1, ethyl N-phenyl-2,3-epoxysuccinamate], for which the inhibition in vivo at 30 mg/kg was found to be 62%.

With `CCOC(=O)[C@@H]1O[C@H]1C(=O)N(C)C1CCCCC1` (relative stereo) [Compound No. 31, ethyl N-methyl-N-cyclohexyl-2,3-epoxysuccinamate], the inhibition in vivo at 30 mg/kg came out at 38%.

`O=C(O)[C@@H]1O[C@H]1C(=O)NCC1CCCCC1` (relative stereo) [Compound No. 98, potassium N-cyclohexanemethyl-2,3-epoxysuccinamate]: the inhibition in vivo at 30 mg/kg amounted to 41%.

For `CC(C)COC(=O)[C@H]1O[C@@H]1C(=O)Nc1ccccc1` (relative stereo) [Compound No. 40, Isobutyl N-phenyl-2,3-epoxysuccinamate], the inhibition in vivo at 30 mg/kg is 35%.

With `CCNC(=O)[C@H]1O[C@@H]1C(=O)OC1CCCCC1` (relative stereo) [Compound No. 66, Cyclohexyl N-ethyl-2,3-epoxysuccinamate], the inhibition in vivo at 30 mg/kg is 62%.

Consider `CCOC(=O)[C@@H]1O[C@H]1C(=O)Nc1ccc([N+](=O)[O-])cc1` (relative stereo) [Compound No. 5, ethyl N-4'-nitrophenyl-2,3-epoxysuccinamate], for which the inhibition in vivo at 30 mg/kg turned out to be 48%.
